{"source": "patent US20210380525A1", "about": "“COMPOSITIONS AND METHODS FOR THE TREATMENT OF PARKINSON'S DISEASE” (Cellix Bio Private Limited, priority 2018, published 2021)", "key": {"[1]": {"experiment": "Clinical signs of toxicity in the pharmacokinetic study", "format": "in vivo", "settings": "single s.c. dose 50, 150 and 300 mg/Kg, male SD rats", "description": "(§1) The objective of this study was to determine the pharmacokinetics of L-Dopa after a single subcutaneous administration of CLX-SYN-G107B-C01 at the doses of 50, 150 and 300 mg/Kg, in male Sprague-Dawley (SD) rats.\n(§2) Three groups of 5-male rats in each (age 8-10 weeks; body weight range 198-226 g) were assigned to receive CLX-SYN-G107B-C01 at the doses of 50, 150 and 300 mg/kg, by subcutaneous route. CLX-SYN-G107B-C01 was formulated in Propylene glycol and PEG-300 for subcutaneous administration. The dose volume was 2 ml/kg."}, "[2]": {"experiment": "Pharmacokinetic study: plasma L-Dopa after single subcutaneous administration of CLX-SYN-G107B-C01", "format": "in vivo, Sprague-Dawley rats", "settings": "lowest tested dose of 50 mg/kg s.c. compared to other doses, SD rats", "description": "as §1, §2\nThe blood samples (0.2 mL/time point) from the animals were collected at 0 (pre-dose), 0.083, 0.25, 0.5, 1, 2, 4, 8, 10, 24, 48 and 72 h post dosing after subcutaneous administration. The plasma samples were analyzed for L-Dopa using a fit-for-purpose LC-MS/MS method."}}}
{"compound": "CCCCCCC(=O)N[C@@H](Cc1ccc(O)c(O)c1)C(=O)OCC(COC(=O)CCCCCC)OC(=O)CCCCCC", "note": "(stereo partly drawn) [CLX-SYN-G107B-C01, 3-(((S)-3-(3,4-dihydroxyphenyl)-2-heptanamidopropanoyl)oxy)propane-1,2-diyl diheptanoate]", "values": [{"measurement": "Clinical signs of toxicity", "setting": "[1]", "value": "No clinical signs of toxicity were observed"}, {"measurement": "Bioavailability (comparison of doses)", "setting": "[2]", "value": "enhanced bioavailability with low dose"}]}
